Laboratory results as given in patent publication US11413278B2, “Compounds and methods for promoting stress resistance” (priority 2015, dated 2022).
Read-outs that look alike come from different tables or passages of the source.

How the values were obtained:
NRF2 [1] = experiment: qPCR analysis of NRF2-regulated genes; format: cell-based, human; conditions: for Potential NRF2 Activation (>=2 target genes induced, by >=1.5-fold): Assay 13(p); for fold induction at 10 µM: Homo sapiens
Outline: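 WI-38 cells treated with compound at 10 μM for 24 hrs, then processed by Cells-to-Ct for RNA isolation, RT and qPCR of NRF2-regulated genes (HMOX1, NQO1, GCLC, GSTM1). Expression normalized to B2M, PPIA and GAPDH; siRNA knockdown of FOXO3 or NRF2 (10 nM) preceded treatment in some runs.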

NRF2 [2] = experiment: in vitro; format: cell-based, human; conditions: for NRF2-dependency for H2O2-resistance, at 10 uM - with H2O2, 1st experiment: experiment 1 (1st)
LC3A/B puncta = experiment: Autophagy induction analysis (LC3A/B puncta immuno-staining); format: cell-based, human; conditions: for Exp. 2, normalized change of nuclei numbers (Less cells): 20X objective, lysosomal LAMP co-staining
Outline: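 WI-38 cells were treated with compounds for 24 hrs, then immunostained for LC3A/B (overnight, 4° C) with DAPI counterstain and imaged by high-content microscopy. Experiment 1 used total puncta intensity. Experiment 2 used LAMP2-colocalized (lysosomal) puncta. Intensity was normalized to nuclei count.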

C. elegans = C. elegans lifespan assays (liquid and plate); format: in vivo, Caenorhabditis elegans; conditions: for ILS at 60 µM / ILS at 66 µM: Caenorhabditis elegans; for O = Life span- extending scores in worms: score scale 0 to 2, 4 to 6 independent trials; for M = Lifespan-extending scores in worms: summary score
[3] = 24 h, Assay 12(o), at 10 uM, qPCR, read-out: Induction of NRF2-regulated genes: GCLC normalized fold-change
[4] = 24 h, Assay 12(o), at 10 uM, qPCR, read-out: Induction of NRF2-regulated genes: GSTM1 normalized fold-change
[5] = 24 h, Assay 12(o), at 10 uM, qPCR, read-out: Induction of NRF2-regulated genes: HMOX1 normalized fold-change
[6] = 24 h, Assay 12(o), at 10 uM, qPCR, read-out: Induction of NRF2-regulated genes: NQO1 normalized fold-change
[7] = rounded fold change, WI-38 cells, 10 μM, 24 hrs (RP11 for Gr-1D, RP29 for Gr-4D), read-out: Summary of effects on NRF2-regulated genes: HMOX1
[8] = rounded fold change, WI-38 cells, 10 μM, 24 hrs (RP29 for Gr-4D), read-out: Summary of effects on NRF2-regulated genes: GSTM1
[9] = rounded fold change, WI-38 cells, 10 μM, 24 hrs (RP29 for Gr-4D), read-out: Summary of effects on NRF2-regulated genes: NQO1
[10] = rounded fold change, WI-38 cells, 10 μM, 24 hrs, read-out: Summary of effects on NRF2-regulated genes: GCLC
[11] = 10 μM, 24 hrs, WI-38, read-out: Expression of at least two NRF2 target genes
[12] = 10 μM, 24 hrs, WI-38 cells, qPCR, normalized to B2M, n = 4, read-out: GCLC expression, normalized fold change (NRF2-regulated gene)
[13] = 10 μM, 24 hrs, WI-38 cells, qPCR, normalized to B2M, n = 4, read-out: GSTM1 expression, normalized fold change (NRF2-regulated gene)
[14] = 10 μM, 24 hrs, WI-38 cells, qPCR, normalized to B2M, n = 4, read-out: HMOX1 expression, normalized fold change (NRF2-regulated gene)
[15] = 10 μM, 24 hrs, WI-38 cells, qPCR, normalized to B2M, n = 4, read-out: NQO1 expression, normalized fold change (NRF2-regulated gene)
[16] = WI-38 cells, 10 μM, 24 hrs, n=4, qPCR normalized by B2M, read-out: GCLC Normalized fold change
[17] = WI-38 cells, 10 μM, 24 hrs, n=4, qPCR normalized by B2M, read-out: GSTM1 Normalized fold change
[18] = WI-38 cells, 10 μM, 24 hrs, n=4, qPCR normalized by B2M, read-out: HMOX1 Normalized fold change
[19] = WI-38 cells, 10 μM, 24 hrs, n=4, qPCR normalized by B2M, read-out: NQO1 Normalized fold change
[20] = in liquid, wild type, with FuDR, 1.0 × 10^9 bacteria/ml, read-out: relative change of mean lifespan vs control, Trial 1
[21] = in liquid, wild type, with FuDR, 2.5 × 10^9 bacteria/ml, read-out: relative change of mean lifespan vs control, Trial 2
[22] = on plate, CF512 temperature-sensitive sterile animals, without FuDR, 2.0 × 10^10 bacteria/ml, read-out: relative change of mean lifespan vs control, Trial 3
[23] = Assay 2(z), 1.0 × 10^9 bacteria/ml, wild type + FuDR (2012 July), read-out: Lifespan assay in liquid
[24] = Assay 3(aa), 2.5 × 10^9 bacteria/ml, wild type + FuDR, read-out: Lifespan assay in liquid
[25] = Assay 4(ab), 2.0 × 10^10 bacteria/ml, CF512 worms, no FuDR, read-out: Lifespan assay on plates
[26] = 10 uM, with H2O2, NRF2 knockdown in WI-38 cells, YES = resistance reduced by at least 50%, partial = 25% to 50%
[27] = Exp. 1, 10 μM, 10X objective, WI-38 cells

Row | Structure (SMILES) | F = Potential NRF2 Activation (NRF2 [1]; 2-point score) | fold induction at 10 µM (NRF2 [1]; [5]) | fold induction at 10 µM (NRF2 [1]; [7]) | fold induction at 10 µM (NRF2 [1]; [14]) | fold induction at 10 µM (NRF2 [1]; [16]) | fold induction at 10 µM (NRF2 [1]; [17]) | fold induction at 10 µM (NRF2 [1]; [18]) | fold induction at 10 µM (NRF2 [1]; [19]) | F = Potential NRF2 Activation (NRF2 [1]; summary score) | J = NRF2-dependency for H2O2-resistance (NRF2 [2]; score) | J = NRF2-dependency for H2O2-resistance (NRF2 [2]; summary score) | H = Potential Autophagy Induction (LC3A/B puncta; score) | H = Potential Autophagy Induction (LC3A/B puncta; summary score) | ILS at 60 µM (C. elegans; [20]) [%] | ILS at 60 µM (C. elegans; [21]) [%] | ILS at 60 µM (C. elegans; [22]) [%] | ILS at 66 µM (C. elegans; [23]) [%] | ILS at 66 µM (C. elegans; [24]) [%] | ILS at 66 µM (C. elegans; [25]) [%] | O = Life span- extending scores in worms (C. elegans) | further results
1 | COc1ccc(C(=O)/C=C/c2cccc(Cl)c2)c(OC)c1 [Gr-4C] | 2 | 89.5 | 89.5 | 89.5 | 2.51 | 1.63 | 89.5 | 5 | 2 | 0 | 0 | 0 | 0 | -14.9 | 3.1 | -1.7 | -14.9 | 3.1 | -1.7 | 0 | Potential NRF2 Activation (>=2 target genes induced, by >=1.5-fold) (NRF2 [1]): YES; fold induction at 10 µM (NRF2 [1]; [3]): 2.51; fold induction at 10 µM (NRF2 [1]; [4]): 1.63; fold induction at 10 µM (NRF2 [1]; [6]): 5; fold induction at 10 µM (NRF2 [1]; [8]): 1.63; fold induction at 10 µM (NRF2 [1]; [9]): 5; fold induction at 10 µM (NRF2 [1]; [10]): 2.51; fold induction at 10 µM (NRF2 [1]; [11]): > 1.5; fold induction at 10 µM (NRF2 [1]; [12]): 2.51; fold induction at 10 µM (NRF2 [1]; [13]): 1.63; fold induction at 10 µM (NRF2 [1]; [15]): 5; M = Lifespan-extending scores in worms (C. elegans): 0
2 | O=C(Nc1ccc(Cl)c(Cl)c1)c1ccc([N+](=O)[O-])o1 [Gr-1G] | 0 | 0.5 | 0.5 | 0.5 | 1.57 | 0.948 | 0.503 | 1.26 | 0 | 0 | 0 | 1 | 1 | 1.3 | 10.2 | 24.7 | 1.3 | 10.2 | 24.7 | 1 (1 for lifespan extension observed in 2 trials) | fold induction at 10 µM (NRF2 [1]; [3]): 1.57; fold induction at 10 µM (NRF2 [1]; [10]): 1.57; fold induction at 10 µM (NRF2 [1]; [12]): 1.57; NRF2-dependency for H2O2-resistance, at 10 uM - with H2O2, 1st experiment (NRF2 [2]; 10 uM, with H2O2): 1st, YES;; NRF2-dependency for H2O2-resistance, 1st experiment (NRF2 [2]; [26]): YES;; Assay 15: Potential autophagy induction by LC3A/B puncta assays (LC3A/B puncta; 10 uM & 20 uM, YES/NO): YES; Exp. 1, induction of LC3A/B puncta (Up), total intensity normalized by total number of nuclei in the fields (LC3A/B puncta; [27]): p < 0.001; Up, 2006%,; Exp. 1, normalized change of nuclei numbers (Less cells) (LC3A/B puncta; [27]): Less cells, 41%,; Exp. 2, normalized change of nuclei numbers (Less cells) (LC3A/B puncta; Exp. 2, 10 μM, WI-38 cells): Less cells, 47%,; Exp. 2, normalized change of nuclei numbers (Less cells) (LC3A/B puncta; Exp. 2, 20 μM, WI-38 cells): Less cells, 67%,; ILS at 60 µM (C. elegans; on plate, CF512 temperature-sensitive sterile animals, without FuDR, 1.0 × 10^11 bacteria/ml, read-out: relative change of mean lifespan vs control, Trial 4): 5.8%; ILS at 66 µM (C. elegans; Assay 5(ac), 1.0 × 10^11 bacteria/ml, CF512 worms, no FuDR, read-out: Lifespan assay on plates): 5.8%; M = Lifespan-extending scores in worms (C. elegans): 1 (1 for lifespan extension observed in 2 trials)
3 | O=C(NCc1cccnc1)/C(=C\c1ccc(Br)cc1)S(=O)(=O)c1ccccc1 [Gr-7B] | 0 | 17.9 | 54.1 | 54.1 | 1.8 | 0.981 | 54.2 | 1.41 | 0 | 1 | 1 | 0 | 0 | 1.3 | 3.5 | 14.9 | 1.3 | 3.5 | 14.9 | 0 | NRF2-dependency for H2O2-resistance, at 10 uM - with H2O2, 1st experiment (NRF2 [2]; 10 uM, with H2O2): 1st, partial;; NRF2-dependency for H2O2-resistance, at 10 uM - with H2O2, 2nd experiment (NRF2 [2]; 10 uM, experiment 2 (2nd), with H2O2): 2nd, partial.; NRF2-dependency for H2O2-resistance, 1st experiment (NRF2 [2]; [26]): partial;; NRF2-dependency for H2O2-resistance, 2nd experiment (NRF2 [2]; [26]): partial.; Assay 17: NRF2-dependency for H2O2-resistance (NRF2 [2]; 10 uM, YES/NO): YES; NRF2-dependency of H2O2-resistance (NRF2 siRNA knockdown) (NRF2 [2]; at least 2 of 3 independent experiments): significantly attenuate; M = Lifespan-extending scores in worms (C. elegans): 0
4 | CCc1ccc(Oc2nc3ccccn3c(=O)c2/C=C(\C#N)C(=O)NCc2ccco2)cc1 [Gr-5B] | 2 | 1.73 | 1.73 | 1.73 | 1.15 | 1.27 | 1.73 | 1.94 | 2 | 0 | 0 | 0 | 0 | 37.2 | 2 | 1.7 | 37.2 | 2 | 1.7 | 0 | Potential NRF2 Activation (>=2 target genes induced, by >=1.5-fold) (NRF2 [1]): YES; fold induction at 10 µM (NRF2 [1]; [4]): 1.27; fold induction at 10 µM (NRF2 [1]; [6]): 1.94; fold induction at 10 µM (NRF2 [1]; [8]): 1.27; fold induction at 10 µM (NRF2 [1]; [9]): 1.94; fold induction at 10 µM (NRF2 [1]; [11]): > 1.5; fold induction at 10 µM (NRF2 [1]; [13]): 1.27; fold induction at 10 µM (NRF2 [1]; [15]): 1.94; M = Lifespan-extending scores in worms (C. elegans): 0
